# Structures can show the parent of a compound that is named as a salt.
# Assay: In vitro release study (dialysis method)
# Assay type: physicochemical
# Settings: PBS pH 5.5, 6.5, 7.4; 37 °C; 100 kD dialysis
# Description: The release study was conducted using a dialysis method with PBS as the buffer media at pH 5.5, 6.5, and 7.4 to simulate the endosomal, tumoral, and plasma conditions, respectively. The pH was adjusted using 1 M HCl solution or 1 M NaOH solution as needed to achieve the desired media pH. Briefly, 5 mL of each formulation were placed in Spectrum Float-A-Lyzer G2 dialysis tubes (Thermo Fisher Scientific, Waltham, MA) with a molecular weight cut-off of 100 kD, which were then immersed in 50 mL of release media. The containers were incubated at 37° C. under shaking at 150 rpm for 96 hours. At 0-, 1-, 2-, 4-, 8-, 12-, 24-, 36-, 48-, 72-, and 96-hour intervals, 500 μL of the sample solution was withdrawn from the release media and replaced with an equal amount of fresh medium. The samples were analyzed using the UPLC-UV method previously described. The error bars were obtained by measuring each sample in triplicate.
compound,measurement,value
"COc1cccc2c1C(=O)c1c(O)c3c(c(O)c1C2=O)C[C@@](O)(C(=O)CO)C[C@@H]3O[C@H]1C[C@H](N)[C@H](O)[C@H](C)O1 [DOX solution, Doxorubicin (hydrochloride salt)]",DOX passed through membrane by 24 hours,~100%
same,DOX released (passed dialysis membrane) within first 4 hours,About 80%
